# Values quoted from earlier work, collected in article PMC9026148, “Pre-Clinical Study Evaluating Novel Protein Phosphatase 2A Activators as Therapeutics for Neuroblastoma” (Cancers, 2022).
# Tested on: CYP3A4
# Set-up: method as in PMID 32954276
# Conditions: at 1 h, cited from earlier work
compound,measurement,setting,value
O=S(=O)(N[C@@H]1CCC[C@H](N2c3ccccc3Oc3ccccc32)[C@H]1O)c1ccc(OC(F)(F)F)cc1 [NZ-8-061],time-dependent inhibition of CYP3A4 (fold shift),,> 30 fold
same,IC50,time-dependent inhibition,< 1 µM
